Measured values taken from ChEMBL document CHEMBL1126680, “Structure-activity relationships of 8-styrylxanthines as A2-selective adenosine antagonists” (J Med Chem, 1993).

target: T1, Adenosine receptor A1 (Rattus norvegicus, UniProt P25099); assay: Affinity against Adenosine A1 receptor in rat brain using [3H]- PIA as radioligand; type: tissue-based; conditions: not given
T1 sequence (P25099 whole entry): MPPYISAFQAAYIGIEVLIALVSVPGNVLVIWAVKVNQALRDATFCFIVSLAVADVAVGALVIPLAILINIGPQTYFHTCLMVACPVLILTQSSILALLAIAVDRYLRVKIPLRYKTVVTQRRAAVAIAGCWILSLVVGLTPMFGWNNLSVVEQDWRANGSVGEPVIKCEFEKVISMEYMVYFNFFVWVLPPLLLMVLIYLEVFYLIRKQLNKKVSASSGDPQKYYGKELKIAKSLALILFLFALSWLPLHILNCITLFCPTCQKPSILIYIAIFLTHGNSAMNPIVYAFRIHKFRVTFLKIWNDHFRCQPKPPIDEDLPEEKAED

Ki | Structure (SMILES)
9200 nM | COc1cc(/C=C/c2nc3c(c(=O)n(C)c(=O)n3C)n2C)cc(OC)c1OC
23600 nM | Cn1c(=O)c2c(nc(/C=C/c3cccc(NC(=O)OC(C)(C)C)c3)n2C)n(C)c1=O

Further lines, the compound ahead of its results:

Structure (SMILES) | Ki
COc1cccc2cc(-c3nc4c(=O)n(C)c(=O)n(C)c4[nH]3)oc12 | 1770 nM
COc1cc(/C=C/c2nc3c(=O)n(C)c(=O)n(C)c3[nH]2)cc(OC)c1OC | 2280 nM
C=CCn1c(=O)c2c(nc(/C=C/c3cc(OC)c(OC)c(OC)c3)n2C)n(CC=C)c1=O | 1930 nM

target: T2, Adenosine receptor A1 (Rattus norvegicus) (UniProt P25099); assay: Binding affinity against Adenosine A1 receptor in rat brain using [3H]- PIA; type: tissue-based; conditions: concentration not given here
T2 sequence (whole entry): T1 sequence (P25099 whole entry)

inhibition | Structure (SMILES)
12.5% | COc1cc(/C=C/c2nc3c(c(=O)n(C)c(=O)n3C)n2C)cc(OC)c1
5.6% | CN(C)c1ccc(/C=C/c2nc3c(c(=O)n(C)c(=O)n3C)n2C)cc1
26% | COc1cc(/C=C/c2nc3c(c(=O)n(C)c(=O)n3C)n2CCO)cc(OC)c1OC

More lines, now with the values behind:

Structure (SMILES) | inhibition
COc1cc(/C=C/c2nc3c(c(=O)n(C)c(=O)n3C)n2C)cc(OC)c1OC/C=C/CNC(=O)OC(C)(C)C | 11%
Cn1c(=O)c2c(nc(CCc3cccc(N)c3)n2C)n(C)c1=O | 15%
COc1cc(/C=C/c2nc3c(c(=O)n(C)c(=O)n3C)n2C)cc(OC)c1OC/C=C/CNC(C)=O | 17%
COc1ccc(/C=C/c2nc3c(=O)n(C)c(=O)n(C)c3[nH]2)c(OC)c1OC | 26%

target: Adenosine A2 receptor (Rattus norvegicus) (UniProt P29276+P30543); assay: Binding affinity against Adenosine A2 receptor in rat brain using [3H]- CGS 21680; type: tissue-based; conditions: concentration not given here

inhibition | Structure (SMILES)
22% | COc1cc(/C=C/c2nc3c(c(=O)n(C)c(=O)n3C)n2CCO)cc(OC)c1OC

target: Adenosine A2 receptor (Rattus norvegicus, UniProt P29276+P30543); assay: Binding affinity against adenosine A2 receptor in rat brain using [3H]- CGS 21680 as radioligand; type: tissue-based; conditions: not given

Ki | Structure (SMILES)
33 nM | CCCn1c(=O)c2c(nc(/C=C/c3cccc(F)c3)n2C)n(CCC)c1=O
450 nM | COc1cc(/C=C/c2nc3c(c(=O)n(C)c(=O)n3C)n2C)cc(OC)c1O
139 nM | COc1cc(/C=C/c2nc3c(c(=O)n(C)c(=O)n3C)n2C)cc(OC)c1OCc1ccccc1
195 nM | Cn1c(=O)c2c(nc(/C=C/c3cccc([N+](=O)[O-])c3)n2C)n(C)c1=O
882 nM | CCn1c(/C=C/c2cc(OC)c(OC)c(OC)c2)nc2c1c(=O)n(C)c(=O)n2C
228 nM | COc1cc(/C=C/c2nc3c(c(=O)n(C)c(=O)n3C)n2C)cc(OC)c1OC/C=C/CN
39 nM | CC(=O)Nc1cccc(/C=C/c2nc3c(c(=O)n(C)c(=O)n3C)n2C)c1
173 nM | COc1cc(/C=C/c2nc3c(c(=O)n(C)c(=O)n3C)n2C)cc(OC)c1OCCCCN
716 nM | COc1cccc(/C=C/c2nc3c(c(=O)n(C)c(=O)n3C)n2C)c1OC
134 nM | Cn1c(=O)c2c(nc(/C=C/c3cccc(C(F)(F)F)c3)n2C)n(C)c1=O
57 nM | Cn1c(=O)c2c(nc(/C=C/c3cccc(N)c3)n2C)n(C)c1=O
267 nM | COc1ccccc1/C=C/c1nc2c(c(=O)n(C)c(=O)n2C)n1C
75.3 nM | COc1cc(/C=C/c2nc3c(c(=O)n(C)c(=O)n3C)n2C)cc(OC)c1
9270 nM | CN(C)c1ccc(/C=C/c2nc3c(c(=O)n(C)c(=O)n3C)n2C)cc1
206 nM | COc1ccc(/C=C/c2nc3c(c(=O)n(C)c(=O)n3C)n2C)c(OC)c1OC
68 nM | COc1cc(/C=C/c2nc3c(c(=O)n(C)c(=O)n3C)n2C)cc(OC)c1OC(C)=O
525 nM | C#CCn1c(/C=C/c2cc(OC)c(OC)c(OC)c2)nc2c1c(=O)n(C)c(=O)n2C
197 nM | COc1ccc(/C=C/c2nc3c(c(=O)n(C)c(=O)n3C)n2C)cc1OC
366 nM | Cn1c(=O)c2nc(/C=C/c3cc(F)cc(F)c3)[nH]c2n(C)c1=O
83 nM | Cn1c(=O)c2c(nc(/C=C/c3cccc(F)c3)n2C)n(C)c1=O
327 nM | COc1ccc(/C=C/c2nc3c(c(=O)n(C)c(=O)n3C)n2C)cc1
65 nM | Cn1c(=O)c2c(nc(/C=C/c3cc(F)cc(F)c3)n2C)n(C)c1=O
143 nM | Cn1c(=O)c2c(nc(/C=C/c3cccc(NC(=O)CCC(=O)O)c3)n2C)n(C)c1=O
53 nM | CCCn1c(=O)c2c(nc(/C=C/c3cc(F)cc(F)c3)n2C)n(CCC)c1=O
346 nM | CCCn1c(=O)c2nc(/C=C/c3cc(F)cc(F)c3)[nH]c2n(CCC)c1=O
84.8 nM | COc1cccc(/C=C/c2nc3c(c(=O)n(C)c(=O)n3C)n2C)c1
784 nM | Cn1c(=O)c2c(nc(/C=C/c3cccc(NC(=O)OC(C)(C)C)c3)n2C)n(C)c1=O

Second part, the compound before the results:

Structure (SMILES) | Ki
COc1ccc(/C=C/c2nc3c(=O)n(C)c(=O)n(C)c3[nH]2)cc1 | 472 nM
CCCn1c(=O)c2nc(/C=C/c3ccccc3)[nH]c2n(CCC)c1=O | 44 nM
Cn1c(=O)c2nc(/C=C/c3ccccc3)[nH]c2n(C)c1=O | 291 nM
CCCn1c(=O)c2c(nc(/C=C/c3cc(OC)cc(OC)c3)n2C)n(CCC)c1=O | 24 nM
CCCn1c(=O)c2nc(/C=C/c3cc(OC)c(OC)cc3OC)[nH]c2n(CCC)c1=O | 323 nM
CN(C)c1ccc(/C=C/c2nc3c(=O)n(C)c(=O)n(C)c3[nH]2)cc1 | 12800 nM
Cn1c(=O)c2c(nc(/C=C/c3cccc(N(C(=O)OC(C)(C)C)C(=O)OC(C)(C)C)c3)n2C)n(C)c1=O | 740 nM
COc1ccccc1/C=C/c1nc2c(=O)n(C)c(=O)n(C)c2[nH]1 | 645 nM
COc1cc(/C=C/c2nc3c(=O)n(C)c(=O)n(C)c3[nH]2)cc(OC)c1 | 120 nM
COc1cccc2cc(-c3nc4c(=O)n(C)c(=O)n(C)c4[nH]3)oc12 | 3900 nM
Cn1c(=O)c2nc(/C(F)=C/c3ccccc3)[nH]c2n(C)c1=O | 2110 nM
Cn1c(=O)c2nc(/C=C/c3cccc(N)c3)[nH]c2n(C)c1=O | 202 nM
Cn1c(=O)c2nc(/C=C/c3cccc(O)c3)[nH]c2n(C)c1=O | 303 nM
Cn1c(=O)c2nc(/C=C/c3cccc(F)c3)[nH]c2n(C)c1=O | 516 nM
COc1cccc(/C=C/c2nc3c(=O)n(C)c(=O)n(C)c3[nH]2)c1 | 378 nM
COc1cccc(/C=C/c2nc3c(=O)n(C)c(=O)n(C)c3[nH]2)c1OC | 600 nM
COc1cc(/C=C/c2nc3c(c(=O)n(C)c(=O)n3C)n2C)cc(OC)c1OC/C=C/CNC(=O)OC(C)(C)C | 353 nM
CCCn1c(=O)c2c(nc(/C=C/c3cccc(N)c3)n2C)n(CCC)c1=O | 18.9 nM

Structure (SMILES) | Ki
CCCn1c(=O)c2nc(/C=C/c3cc(OC)cc(OC)c3)[nH]c2n(CCC)c1=O | 210 nM
Cn1c(=O)c2c(nc(CCc3cccc(N)c3)n2C)n(C)c1=O | 18000 nM
COc1ccc(/C=C/c2nc3c(=O)n(C)c(=O)n(C)c3[nH]2)cc1OC | 1100 nM
CCCn1c(=O)c2c(nc(/C=C/c3ccc(OC)c(OC)c3OC)n2C)n(CCC)c1=O | 68.5 nM
Cn1c(=O)c2nc(/C=C/c3cccc([N+](=O)[O-])c3)[nH]c2n(C)c1=O | 438 nM
COc1cc(/C=C/c2nc3c(c(=O)n(C)c(=O)n3C)n2CCc2ccccc2)cc(OC)c1OC | 14 nM
Cn1c(=O)c2nc(/C=C/c3cccc(C(F)(F)F)c3)[nH]c2n(C)c1=O | 343 nM
COc1cc(/C=C/c2nc3c(c(=O)n(C)c(=O)n3C)n2C)cc(OC)c1OC/C=C/CNC(C)=O | 216 nM
CCCn1c(=O)c2nc(/C=C/c3cccc(F)c3)[nH]c2n(CCC)c1=O | 153 nM
COc1cccc2cc(-c3nc4c(c(=O)n(C)c(=O)n4C)n3C)oc12 | 4740 nM
COc1cc(/C=C/c2nc3c(c(=O)n(C)c(=O)n3C)n2C)cc(OC)c1OCCCCNC(=O)OC(C)(C)C | 265 nM
CCCn1c(=O)c2nc(/C=C/c3ccc(OC)c(OC)c3OC)[nH]c2n(CCC)c1=O | 64 nM
CCCn1c(=O)c2nc(/C=C/c3cccc(Cl)c3)[nH]c2n(CCC)c1=O | 216 nM
COc1ccc(/C=C/c2nc3c(=O)n(C)c(=O)n(C)c3[nH]2)c(OC)c1OC | 1610 nM
CCCn1c(=O)c2c(nc(/C=C/c3cc(OC)c(OC)cc3OC)n2C)n(CCC)c1=O | 327 nM
CCCn1c(=O)c2c(nc(/C=C/c3cccc([N+](=O)[O-])c3)n2C)n(CCC)c1=O | 56.2 nM
CCn1c(=O)c2nc(/C=C/c3cc(OC)c(OC)c(OC)c3)[nH]c2n(CC)c1=O | 269 nM
